From patent publication US20250034202A1 (The General Hospital Corporation, priority 2021, published 2025)
Where “and” joins values, the source holds several entries; their conditions need not be identical. Equal values may be shown once. Read-outs that look alike come from different tables or passages of the source.

How the values were obtained:
BRD4 [1] = target: T1, BRD4 (Homo sapiens, UniProt O60885); test: Rescue of CS-JQ1-induced BRD4 degradation by co-treatment; assay type: cell-based; details: CS-JQ1 250 nM; BTZ, MLN7243, MLN4924 1 μM, JQ1 10 μM; MCF7 and MDA-MB-231 cells
MES83 = test: Cell viability, adult glioma MES83; assay type: cell-based
DIPG IV = test: Cell viability, pediatric glioma DIPG IV; assay type: cell-based
MDA-BR = test: Cell viability, breast cancer cells MDA-BR; assay type: cell-based
GBM8 = test: Cell viability, adult glioma GBM8; assay type: cell-based
MGG23 = test: Cell viability, adult glioma MGG23; assay type: cell-based
MCF-7 = test: Cell viability, breast cancer cells MCF-7; assay type: cell-based
DIPG XIII = test: Cell viability, pediatric glioma DIPG XIII; assay type: cell-based
MDA = test: Cell viability, breast cancer cells MDA; assay type: cell-based
MGG29 = test: Cell viability, adult glioma MGG29; assay type: cell-based
SJGBM2 = test: Cell viability, pediatric glioma SJGBM2; assay type: cell-based
PN84 = test: Cell viability, adult glioma PN84; assay type: cell-based
BT474 = test: Cell viability, breast cancer cells BT474; assay type: cell-based
DIPG VI = test: Cell viability, pediatric glioma DIPG VI; assay type: cell-based
CT2A (mice) = test: Cell viability, adult glioma CT2A (mice); assay type: cell-based
U87 = test: Cell viability, adult glioma U87; assay type: cell-based
MGG6 = test: Cell viability, adult glioma MGG6; assay type: cell-based
BRD4 [2] = test: CDDO blockade of CS-JQ1-induced BRD4 degradation; assay type: cell-based; details: MDA and MES83 cells; CDDO 100 nM or 5 μm, celastrol-JQ1 100 nM; CHX 3 μg/ml 1 h, 8 hour treatment
MES236 = test: Cell viability, adult glioma MES236; assay type: cell-based
PKC (mice) = test: Cell viability, pediatric glioma PKC (mice); assay type: cell-based; details: Mus musculus
PHC (mice) = test: Cell viability, pediatric glioma PHC (mice); assay type: cell-based; details: Mus musculus
BRD4 [3] = test: TR-FRET ligand displacement, target engagement with BRD4; assay type: binding; details: recombinant BRD4(BD1), BRD4(BD2), endogenous BRD4 in MCF7 cell extracts
DIPG 50 = test: Cell viability, pediatric glioma DIPG 50; assay type: cell-based
BRD4 [4] = target: T1, BRD4; test: TR-FRET quantification of BRD4 levels after 5 h treatment, MCF7 cells; assay type: cell-based; details: BRD4 degradation
Method: (§1) Mammalian cell culture: MCF7 cells (ATCC) were propagated in RPMI-1640 medium supplemented with 10% FBS, 1% pen-strep, and 1% L-glutamine at 37° C. and 5% CO2. MDA-MB-231 cells (ATCC) were propagated in DMEM medium supplemented with 10% FBS, and 1% pen-strep at 37° C. and 5% CO2.
(§2) TR-FRET measurements: unless otherwise noted, experiments were performed in white, 384-well microtiter plates (Corning 3572) in 30 μL assay volume. […] The 490/10 and 520/10 emission channels were acquired with a 50% mirror and a dichroic 510 mirror, respectively, using independently optimized detector gain settings unless specified otherwise. The TR-FRET ratio was taken as the 520/490 nm intensity ratio on a per-well basis.
(§3) Next, MCF7 and MDA-MB-231 cells were treated for 5 h with varying concentrations of CS-JQ1, followed by BRD4 quantification. […] Western blot analysis on the same samples yielded results that were again in excellent agreement (FIG. 1F-G).

Keap1 Kelch domain = Keap1 Kelch domain (Homo sapiens, UniProt Q14145); test: TR-FRET assay with full-length Keap1, Kelch domain; assay type: binding
Method: (§4) FIG. 5 contains a table showing apparent equilibrium dissociation constants for CS and CS-JQ1 toward Keap1-Kelch and Keap1-BTB domains.
(§5) Chemical synthesis: FITC-Ahx-[…]-CONH2 (FITC-KL9) peptide tracer was custom synthesized by Genscript (Piscataway, New Jersey). CDDO-FITC fluorescent tracer was prepared as previously described. Column purifications were performed on a Biotage Isolera 4 Purification System equipped with a 200-400 nm diode array detector. For normal phase flash purifications, Sorbtech Purity Flash Cartridges were used (CFC-52300-012-18 and CFC-52500-025-12). For reverse phase flash purifications, Biotage Sfar Bio C18 Duo 300 A, 20 μm cartridges were used (FSBD-0411-001). […] LC/MS data analysis was performed using Waters Masslynx V4.1 SCN 846 software. Proton and carbon nuclear magnetic resonance (1H and 13C NMR spectra) were recorded on a Bruker Avance III 400 spectrometer using Topspin 3.2 software and data were analyzed using MestreNova (version 12.0.1-20560, Mestrelab Research). Chemical shifts for protons are reported in parts per million (ppm) and are referenced to residual solvent peaks. Data is reported as follows: chemical shift, multiplicity (s=singlet, br s, =broad singlet, d=doublet, t=triplet, q=quartet, p=pentet, m=multiplet), proton coupling constants (J, Hz), and integration. […]

M005 (mice) = test: Cell viability, adult glioma M005 (mice); assay type: cell-based; details: Mus musculus
XFM (mice) = test: Cell viability, pediatric glioma XFM (mice); assay type: cell-based; details: Mus musculus
Keap1 BTB domain = Keap1 BTB domain (Homo sapiens, UniProt Q14145); test: TR-FRET ligand displacement assay with full-length Keap1, BTB domain (CDDO-based tracer); assay type: binding
Method: as §4
as §5, with “Research).” for “Research). Chemical shifts for protons are reported in parts per million (ppm) and are referenced to residual solvent peaks. Data is reported as follows: chemical shift, multiplicity (s=singlet, br s, =broad singlet, d=doublet, t=triplet, q=quartet, p=pentet, m=multiplet), proton coupling constants (J, Hz), and integration.”
CS was discovered and validated as a promising new ligand for the redirection of E3 ligase activity. […] Since the binding affinity of CS and CS-JQ1 for BTB was determined in a ligand displacement assay using a CDDO-based tracer, it was reasonable to assume that CDDO-Me would efficiently displace CS-JQ1. […]

BRD4 [5] = target: T1, BRD4; test: TR-FRET quantification of BRD4 levels after 5 h treatment, MDA-MB-231 cells; assay type: cell-based; details: BRD4 degradation
Method: as §1, §2, §3

[6] = system: full-length Keap1 and BRD4(BD1) and BRD4(BD2); test: CS-JQ1-induced ternary complex formation; assay type: binding; details: wildtype full-length Keap1, isolated BRD4 (BD1) and BRD4 (BD2)
[7] = cited from earlier work

Chain of Keap1 BTB domain (Q14145 whole entry, the tested form may be a part): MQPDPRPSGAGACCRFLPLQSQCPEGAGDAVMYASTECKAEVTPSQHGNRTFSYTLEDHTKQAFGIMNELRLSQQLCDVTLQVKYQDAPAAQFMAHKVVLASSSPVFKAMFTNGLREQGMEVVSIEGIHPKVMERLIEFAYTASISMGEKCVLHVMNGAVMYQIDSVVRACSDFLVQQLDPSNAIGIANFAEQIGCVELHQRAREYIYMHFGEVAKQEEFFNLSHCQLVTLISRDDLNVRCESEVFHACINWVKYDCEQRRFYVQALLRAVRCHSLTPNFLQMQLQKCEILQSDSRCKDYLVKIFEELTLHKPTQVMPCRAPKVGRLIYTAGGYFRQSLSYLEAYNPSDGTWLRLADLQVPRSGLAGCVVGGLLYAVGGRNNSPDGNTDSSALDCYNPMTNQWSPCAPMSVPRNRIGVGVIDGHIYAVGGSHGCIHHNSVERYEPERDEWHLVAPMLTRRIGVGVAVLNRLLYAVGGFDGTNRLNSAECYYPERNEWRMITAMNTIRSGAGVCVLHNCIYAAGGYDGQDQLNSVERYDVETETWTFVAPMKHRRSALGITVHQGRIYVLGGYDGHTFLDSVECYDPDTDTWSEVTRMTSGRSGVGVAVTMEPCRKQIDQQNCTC
Chain of Keap1 Kelch domain (Q14145 whole entry, the tested form may be a part): as above

Structure (SMILES): CC(C)C[C@H](NC(=O)[C@H](Cc1ccccc1)NC(=O)c1cnccn1)B(O)O [BTZ]
- Rescue of CS-JQ1-mediated BRD4 degradation by co-treatment (BRD4 [1]): substantially rescued

Structure (SMILES): CC1(C)CC[C@]2(C(=O)O)CC[C@]3(C)[C@H](C(=O)C=C4[C@@]5(C)C=C(C#N)C(=O)C(C)(C)[C@@H]5CC[C@]43C)[C@@H]2C1 [CDDO]
- IC50 (MES83): 1350 nM
- IC50 (DIPG IV): 1360 nM
- IC50 (MDA-BR): > 10000 nM
- IC50 (GBM8): 578 nM
- IC50 (MGG23): 2570 nM
- IC50 (MCF-7): > 10000 nM
- IC50 (DIPG XIII): 1410 nM
- IC50 (MDA): 1220 nM
- IC50 (MGG29): 828 nM
- IC50 (SJGBM2): 2370 nM
- IC50 (PN84): 278 nM
- IC50 (BT474): 4840 nM
- IC50 (DIPG VI): 1330 nM
- IC50 (CT2A (mice)): 2120 nM
- IC50 (U87): 3700 nM
- IC50 (MGG6): 964 nM
- Blockade of CS-JQ1-induced BRD4 degradation by CDDO pre-treatment (BRD4 [2]): blocks partially
- IC50 (MES236): 1280 nM

Structure (SMILES): CC1=C(O)C(=O)C=C2C1=CC=C1[C@@]2(C)CC[C@@]2(C)[C@@H]3C[C@](C)(C(=O)NCCCOCCOCCOCCCNC(=O)CC4N=C(c5ccc(Cl)cc5)c5c(sc(C)c5C)-n5c(C)nnc54)CC[C@]3(C)CC[C@]12C (stereo partly drawn) [CS-JQ1, (2R,4aS,6aS,12bR,14aS,14bR)—N-(1-(4-(4-chlorophenyl)-2,3,9-trimethyl-6H-thieno[3,2-f][1,2,4]triazolo[4,3-a][1,4]diazepin-6-yl)-2-oxo-7,10,13-trioxa-3-azahexadecan-16-yl)-10-hydroxy-2,4a,6a,9,12b,14a-hexamethyl-11-oxo-1,2,3,4,4a,5,6,6a,11,12b,13,14,14a,14b-tetradecahydropicene-2-carboxamide]
- IC50 (MES83): 328 nM
- IC50 (DIPG IV): 819 nM
- IC50 (MDA-BR): 213 nM
- IC50 (PKC (mice)): 103 nM
- IC50 (GBM8): 63.1 nM
- IC50 (MGG23): 447 nM
- IC50 (PHC (mice)): 8.48 nM
- Binding to BRD4 (BRD4 [3]): did not impair binding to BRD4
- IC50 (MCF-7; Homo sapiens, MCF7): 409 nM
- IC50 (DIPG 50): 298 nM
- IC50 (DIPG XIII): 39 nM
- IC50 (DIPG XIII; listed as Celastrol-JQ1): 46.5 nM
- Emax (BRD4 [4]): 21%
- Emax,5h,MCF7 (BRD4 [4]): 21%
- DC50 (BRD4 [4]; n=2): 29 ± 14 nM
- IC50 (MDA): 119 nM
- IC50 (MGG29): 90.4 nM
- IC50 (SJGBM2): 263 nM
- Binding to Keap1 Kelch domain (Keap1 Kelch domain): lost the ability to bind the Keap1 Kelch domain
- IC50 (PN84): 79.7 nM
- IC50 (PN84; listed as Celastrol-JQ1): 125 nM
- IC50 (BT474; Homo sapiens, BT-474): 60.9 nM
- IC50 (DIPG VI): 83.1 nM
- IC50 (CT2A (mice); Mus musculus): 142 nM
- IC50 (U87; Homo sapiens, U-87 MG): 266 nM
- IC50 (M005 (mice)): 23.6 nM
- IC50 (MGG6): 99.3 nM
- IC50 (XFM (mice)): 38.2 nM
- Affinity for Keap1 BTB domain (Keap1 BTB domain): slightly improved affinity for the BTB domain
- Emax (BRD4 [5]): 12%
- Emax,5h,MDA-MB-231 (BRD4 [5]): 12%
- DC50 (BRD4 [5]; n=2): 16 ± 2 nM
- IC50 (MES236): 190 nM
- Ternary complex formation between Keap1 and BRD4 domains [6]: able to induce ternary complex formation

Structure (SMILES): NS(=O)(=O)OC[C@H]1C[C@@H](Nc2ccnc3cc(-c4cccc(SC(F)(F)F)c4)nn23)[C@H](O)[C@@H]1O [MLN7243]
- Rescue of CS-JQ1-mediated BRD4 degradation by co-treatment (BRD4 [1]): substantially rescued

Structure (SMILES): Cc1sc2c(c1C)C(c1ccc(Cl)cc1)=NC(CC(=O)NCCCOCCOCCOCCCNC(=O)[C@]13CCC(C)(C)C[C@H]1[C@H]1C(=O)C=C4[C@@]5(C)C=C(C#N)C(=O)C(C)(C)[C@@H]5CC[C@@]4(C)[C@]1(C)CC3)c1nnc(C)n1-2 (stereo partly shown) [CDDO-JQ1]
- IC50 (MES83): 1000 nM
- IC50 (DIPG IV): 894 nM
- IC50 (MDA-BR): > 10000 nM
- IC50 (GBM8): 124 nM
- IC50 (MGG23): 1850 nM
- IC50 (MCF-7): 6600 nM
- IC50 (DIPG XIII): 694 nM
- IC50 (MDA): 748 nM
- IC50 (MGG29): 360 nM
- IC50 (SJGBM2): 635 nM
- IC50 (PN84): 139 nM
- IC50 (BT474): 1680 nM
- IC50 (DIPG VI): 277 nM
- IC50 (CT2A (mice)): 747 nM
- IC50 (U87): 746 nM
- IC50 (MGG6): 357 nM
- IC50 (MES236): 404 nM

Structure (SMILES): NS(=O)(=O)OC[C@@H]1C[C@@H](n2ccc3c(N[C@H]4CCc5ccccc54)ncnc32)C[C@@H]1O [MLN4924]
- Rescue of CS-JQ1-mediated BRD4 degradation by co-treatment (BRD4 [1]): substantially rescued

Structure (SMILES): CC1=C(O)C(=O)C=C2C1=CC=C1[C@@]2(C)CC[C@@]2(C)[C@@H]3C[C@](C)(C(=O)O)CC[C@]3(C)CC[C@]12C [Celastrol, (9β,13α,14β,20α)-3-hydroxy-9,13-dimethyl-2-oxo-24,25,26-Trinoroleana-1(10),3,5,7-tetraen-29-oic acid]
- IC50 (MES83): 1160 nM
- IC50 (DIPG IV): 2960 nM
- pKa [7]: about 4.8
- IC50 (MDA-BR): 1710 nM
- IC50 (PKC (mice)): 170 nM
- IC50 (GBM8): 715 nM
- IC50 (MGG23): 1810 nM
- IC50 (PHC (mice)): 310 nM
- IC50 (MCF-7; Homo sapiens, MCF7): 3320 nM
- IC50 (DIPG 50): 1600 nM
- IC50 (DIPG XIII): 1910 nM and 1800 nM
- IC50 (MDA): 1200 nM
- IC50 (MGG29): 1100 nM
- IC50 (SJGBM2): 1190 nM
- Binding to Keap1 Kelch domain (Keap1 Kelch domain): low micromolar affinity
- IC50 (PN84): 381 nM
- IC50 (BT474; Homo sapiens, BT-474): 511 nM
- IC50 (DIPG VI): 1360 nM
- IC50 (CT2A (mice); Mus musculus): 605 nM
- IC50 (U87; Homo sapiens, U-87 MG): 913 nM
- IC50 (M005 (mice)): 874 nM
- IC50 (MGG6): 1230 nM
- IC50 (XFM (mice)): 276 nM
- Affinity for Keap1 BTB domain (Keap1 BTB domain): low micromolar affinity
- IC50 (MES236): 1270 nM
